Measurements: US20220017468A1, “ISOQUINOLINE COMPOUNDS AND THEIR USE IN TREATING AhR IMBALANCE” (Dermavant Sciences GmbH, priority 2020, published 2022)
Where “and” joins values, the source holds several entries; their conditions need not be identical. Equal entries are not always repeated. Entries after “also recorded” stand apart in the source; their conditions may differ. Where two headings read alike, the source gives them in different places.

Key:
AhR = target: T1, AhR (Homo sapiens, UniProt P35869); experiment: CYP1A1-bla LS-180 AhR antagonist assay; assay type: cell-based; conditions: competition of FICZ- or TCDD-induced AhR activation
T1 construct: LS-180 cells stably transfected with a CYP1A1 promoter-linked beta-lactamase gene reporter construct; endogenous in cells; host or cells: CYP1A1-bla LS-180 cells
T1 sequence (P35869 11-848): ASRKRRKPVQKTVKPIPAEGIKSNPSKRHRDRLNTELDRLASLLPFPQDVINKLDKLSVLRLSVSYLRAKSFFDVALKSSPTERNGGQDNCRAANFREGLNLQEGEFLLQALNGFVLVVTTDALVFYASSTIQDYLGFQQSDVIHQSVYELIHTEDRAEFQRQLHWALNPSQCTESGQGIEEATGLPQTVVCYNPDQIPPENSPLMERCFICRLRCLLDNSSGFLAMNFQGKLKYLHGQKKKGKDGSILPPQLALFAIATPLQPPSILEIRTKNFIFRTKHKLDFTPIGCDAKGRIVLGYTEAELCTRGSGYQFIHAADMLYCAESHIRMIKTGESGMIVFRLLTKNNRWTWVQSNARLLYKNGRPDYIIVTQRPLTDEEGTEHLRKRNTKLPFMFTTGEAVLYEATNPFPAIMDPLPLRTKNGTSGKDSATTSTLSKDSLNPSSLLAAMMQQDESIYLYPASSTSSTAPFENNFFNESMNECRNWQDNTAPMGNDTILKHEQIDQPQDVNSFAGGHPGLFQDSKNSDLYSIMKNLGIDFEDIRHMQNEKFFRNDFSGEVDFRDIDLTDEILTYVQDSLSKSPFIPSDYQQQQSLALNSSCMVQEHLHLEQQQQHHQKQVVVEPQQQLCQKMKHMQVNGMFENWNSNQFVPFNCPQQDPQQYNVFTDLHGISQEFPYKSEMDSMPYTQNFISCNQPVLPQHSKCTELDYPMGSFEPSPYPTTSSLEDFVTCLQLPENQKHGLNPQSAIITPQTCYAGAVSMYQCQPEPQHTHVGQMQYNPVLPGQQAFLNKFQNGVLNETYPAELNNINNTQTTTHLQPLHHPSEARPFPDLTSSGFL
Method: A similar assay was used to evaluate the antagonist capacity of compounds. CYP1A1-bla LS-180 cells in exponential growth phase were washed twice with DPBS then seeded into 96-well microplates (50,000 cells/well) and allowed to adhere. Either FICZ or TCDD was added as an agonist and prepared compounds (2× working concentrations in complete media) were added 2 hours later. Cells were incubated for ˜20 hrs, after which compounds were tested for their ability to compete FICZ- or TCDD-induced AhR activation as a means to evaluate potential allosteric or partial agonist activity. The LiveBLAzer FRET B/G β-lactamase substrate was added in the final hour of incubation and resulting blue/green fluorescence was measured using a 96-well microplate reader, as described above.

IL-17A = experiment: CD4+ T cell IL17 assay; assay type: cell-based, human; conditions: for IC50: T-cell
Method: Therefore, compounds are evaluated for their ability to reduce IL-17 production from CD4+ T cells stimulated under Th17-skewing conditions. Cryopreserved human CD4^+ T cells (AllCells, LLC, Alameda, CA and Stemcell Technologies, Inc. Vancouver, Canada) were differentiated to the Th17 subtype by culturing for 5 days in CD3-coated tissue culture plates (2 μg/mL) in Iscove's modified Dulbecco's medium (IMDM) containing 10% HI-FBS, 55 μM 2-mercaptoethanol and soluble anti-CD28 (3 μg/mL) in the presence of a Th17 skewing cocktail, [IL-1β (10 ng/mL), IL-6 (30 ng/mL), TGFβ (0.5 ng/mL), IL-21 (10 ng/mL), IL-23 (10 ng/mL), anti-IFNγ (10 μg/mL) and anti-IL-4 (10 μg/mL)] in the presence or absence of serially diluted compounds. Secretion of IL-17 from polarized CD4+ T-cells was measured in the culture media using an MSD (Meso Scale Discovery) detection system following 5 day exposure toTh17 polarization reagents with and without compounds.

[1] = system: human peripheral blood CD4+ T-cells; experiment: T cell viability; assay type: cell-based; conditions: 120 h, Th17 polarizing conditions, 5 days
Description: (§1) Points represent percent maximum expression of protein compared to Th17 from six combined donors; 3 biological replicates per treatment. Error bars represent standard error of mean. […] Data are mean±standard error from 3 to 9 experimental data points. […] Error bars represent mean ±standard error of 10-15 biological replicates.

[2] = system: human primary keratinocytes; experiment: keratinocyte viability; assay type: cell-based; conditions: 48 h, two days
Description: as §1

[3] = skin binding in human skin homogenate; assay type: in vitro ADME; conditions: 25, 50 and 100 ng/mL
[4] = blood-to-plasma ratio and blood cell association, rat; assay type: in vitro ADME
[5] = blood-to-plasma ratio and blood cell association, human; assay type: in vitro ADME
[6] = metabolic stability in liver microsomes, rat; assay type: in vitro ADME
[7] = metabolic stability in liver microsomes, minipig; assay type: in vitro ADME
[8] = metabolic stability in hepatocytes, mouse; assay type: in vitro ADME
[9] = metabolic stability in hepatocytes, minipig; assay type: in vitro ADME
[10] = bioavailability after a single oral dose, minipig; assay type: in vivo; conditions: plasma, single 5 mg/kg oral dose, DMSO: Kolliphore HS15: hydroxypropyl-β-cyclodextrin (10:10:80)
Description: Bioavailability was 46.5% and 41.0% for 30% Captisol and 30% Cavitron, respectively. 30% Captisol formulation was selected for the 7-day subcutaneous toxicity study in rat.

[11] = read-out: Blood-to-plasma Ratio Mean (% CV)
[12] = read-out: Blood-to-plasma Ratio Replicate

With `CC(C)c1c(O)cc(-c2cc3ccccc3cn2)cc1O` the “AhR antagonist assay result” value (AhR) was “negative”, the IC50 (IL-17A; MSD-based readout of secreted IL-17A from Th17-polarized primary human CD4+ peripheral blood T cells, read-out: IL-17A pIC50 (converted)) was 0.00398 µM and the IC50 (IL-17A; primary human peripheral blood CD4+ T-cells, read-out: IL-17A inhibition IC50) was 0.14 µM. The IL-17A production (IL-17A; Th17-skewing conditions, applied throughout culture) was “suppression of IL-17A; also recorded: reduces IL-17A production in a dose-dependent manner”, the IC50 [1] was 5.9 µM and the IC50 [2] was 12.4 µM. The fraction unbound ([3]; human dermis homogenate) was 0.341 ± 0.115, the fraction unbound ([3]; human epidermis homogenate) was 0.513 ± 0.011 and the fraction unbound ([3]; whole human skin homogenate) was 0.219 ± 0.0072. For the same compound, the “% Blood Cell Association Mean (% CV)” value ([4]; 1 μM) was 60.2 (4.37) %, the “% Blood Cell Association Replicate” value ([4]; 1 μM) was 58.9% and 58.3% and 63.1% and the “Blood-to-plasma Ratio Replicate” value ([4]; 1 μM) was 1.29 and 1.46. For the same compound, the “Mean % Blood Stability” value ([4]; 1 μM) was 104%, the blood plasma ratio at 1 μM [4, 11] was 1.36 and the blood plasma ratio at 1 μM [4, 12] was 1.31. For the same compound, the “% Blood Cell Association Mean (% CV)” value ([5]; 1 μM) was 55.0 (2.39) %, the “% Blood Cell Association Replicate” value ([5]; 1 μM) was 53.9% and 56.4% and 54.6% and the “Blood-to-plasma Ratio Replicate” value ([5]; 1 μM) was 1.29 and 1.23. For the same compound, the “Mean % Blood Stability” value ([5]; 1 μM) was 107%, the blood plasma ratio at 1 μM [5, 11] was 1.24 and the blood plasma ratio at 1 μM [5, 12] was 1.21. The “CLint, mic” value ([6]; rat liver microsomes, 0.5 μM) was 6.21 mL/min/g liver, the CLint scaled at 0.5 μM ([6]; rat liver microsomes, 0.5 μM, read-out: Scaled CLint, mic) was 224 mL/min/kg and the half-life at 0.5 μM ([6]; rat, microsomes) was 10.3 min. The “CLint, mic” value ([7]; minipig liver microsomes, 0.5 μM) was 3.01 mL/min/g liver, the CLint scaled at 0.5 μM ([7]; minipig liver microsomes, 0.5 μM, read-out: Scaled CLint, mic) was 50.3 mL/min/kg and the half-life at 0.5 μM ([7]; minipig, microsomes) was 24.2 min. For the same compound, the half-life at 0.5 μM [8] was 8.39 min, the “CLint, hep” value ([8]; 0.5 μM) was 22.3 mL/min/g liver and the CLint scaled at 0.5 μM ([8]; read-out: Scaled CLint, hep) was 1140 mL/min/kg. The “in vitro-to-in vivo extrapolation (IVIVE) ratio” value ([9]; minipig) was 0.27, the “CLint, hep” value ([9]; minipig hepatocytes, 0.5 μM) was 6.27 mL/min/g liver and the half-life at 0.5 μM ([9]; minipig hepatocytes, 0.5 μM) was 26.5 min. For the same compound, the CLint scaled at 0.5 μM ([9]; minipig hepatocytes, 0.5 μM, read-out: Scaled CLint, hep) was 105 mL/min/kg and the bioavailability [10] was 0.1%.
